Experimental data: publication PMC9950447, “Targeting USP10 induces degradation of oncogenic ANLN in esophageal squamous cell carcinoma” (Cell Death and Differentiation, 2022)

How the values were obtained:
USP10 = biological target: T1, USP10 (Homo sapiens, UniProt Q14694); assay: SPR (Biacore T200, His-USP10 immobilized on CM5 chip); supported by Ub-AMC inhibition of purified USP10 (IC50 […]); type: binding
T1 construct: His-USP10

recombinant GST-USP10 = recombinant GST-USP10 (human, UniProt Q14694-3 1-802); assay: pull-down; in vitro GST pull down: GST-tagged protein bound to GST Bind Resin in GST lysis buffer, His-tagged proteins added, 4 °C for 4 h, six washes with PBST, western blot; settings: both partners purified
Sequence of recombinant GST-USP10 (Q14694 other isoform, or with tags, fused parts or gaps): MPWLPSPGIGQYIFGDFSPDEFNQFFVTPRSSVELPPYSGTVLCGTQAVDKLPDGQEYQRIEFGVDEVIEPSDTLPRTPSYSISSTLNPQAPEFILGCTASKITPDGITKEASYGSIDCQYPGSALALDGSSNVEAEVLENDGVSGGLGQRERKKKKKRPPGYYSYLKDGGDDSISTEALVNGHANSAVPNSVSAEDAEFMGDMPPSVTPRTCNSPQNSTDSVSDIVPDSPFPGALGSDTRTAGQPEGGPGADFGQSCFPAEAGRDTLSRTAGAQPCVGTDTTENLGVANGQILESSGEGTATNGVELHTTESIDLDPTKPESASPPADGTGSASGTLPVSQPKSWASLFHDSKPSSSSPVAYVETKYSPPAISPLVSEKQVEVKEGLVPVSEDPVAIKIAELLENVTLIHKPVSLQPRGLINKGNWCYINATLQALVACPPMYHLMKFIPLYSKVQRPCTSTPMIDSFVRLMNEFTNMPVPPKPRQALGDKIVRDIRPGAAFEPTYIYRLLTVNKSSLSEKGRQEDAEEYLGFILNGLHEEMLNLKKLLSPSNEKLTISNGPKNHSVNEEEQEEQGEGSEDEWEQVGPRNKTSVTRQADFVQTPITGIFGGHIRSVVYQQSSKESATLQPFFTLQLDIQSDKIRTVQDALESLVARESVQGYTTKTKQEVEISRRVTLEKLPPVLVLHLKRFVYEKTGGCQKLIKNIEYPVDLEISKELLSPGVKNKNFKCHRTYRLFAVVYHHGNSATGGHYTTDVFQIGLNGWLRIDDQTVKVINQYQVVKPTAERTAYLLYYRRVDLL

T1 sequence (Q14694 2-798): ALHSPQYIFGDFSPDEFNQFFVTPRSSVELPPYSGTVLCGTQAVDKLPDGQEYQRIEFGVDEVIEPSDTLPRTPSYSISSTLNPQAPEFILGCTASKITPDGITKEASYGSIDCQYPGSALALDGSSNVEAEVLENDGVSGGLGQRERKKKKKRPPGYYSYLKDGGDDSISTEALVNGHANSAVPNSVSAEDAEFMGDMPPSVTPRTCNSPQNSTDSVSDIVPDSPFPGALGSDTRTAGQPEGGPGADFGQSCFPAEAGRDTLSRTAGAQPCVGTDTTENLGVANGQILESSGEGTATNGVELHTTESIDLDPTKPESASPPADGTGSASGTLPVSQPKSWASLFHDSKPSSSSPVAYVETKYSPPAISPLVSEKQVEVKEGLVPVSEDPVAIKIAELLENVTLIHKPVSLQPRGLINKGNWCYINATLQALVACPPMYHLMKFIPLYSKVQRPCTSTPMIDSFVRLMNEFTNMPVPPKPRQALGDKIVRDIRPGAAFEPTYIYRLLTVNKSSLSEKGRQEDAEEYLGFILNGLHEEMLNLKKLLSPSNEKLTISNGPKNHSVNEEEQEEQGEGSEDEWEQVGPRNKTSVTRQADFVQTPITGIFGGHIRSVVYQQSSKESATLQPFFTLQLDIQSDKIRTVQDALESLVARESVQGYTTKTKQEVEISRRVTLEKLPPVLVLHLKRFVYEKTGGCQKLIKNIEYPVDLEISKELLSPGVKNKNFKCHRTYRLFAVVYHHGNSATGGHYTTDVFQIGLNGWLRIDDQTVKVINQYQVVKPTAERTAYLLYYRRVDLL

| Kd (USP10) [µM] | binding result (recombinant GST-USP10) | Molecule |
| --- | --- | --- |
| ~27.5 |  | CC1=C[C@H](C)C[C@H](C)[C@H](Cc2cnco2)OC(=O)/C(C)=C\[C@H](C)C[C@H](C)[C@H](Cc2cnco2)OC1=O [F806, FW-04-806] |
|  | binds | His-ANLN amino acids 1-454 (domain or fragment, human, UniProt Q9NQW6 1-454, looked up, also called His-ANLN mutant) MDPFTEKLLERTRARRENLQRKMAERPTAAPRSMTHAKRARQPLSEASNQQPLSGGEEKSCTKPSPSKKRCSDNTEVEVSNLENKQPVESTSAKSCSPSPVSPQVQPQAADTISDSVAVPASLLGMRRGLNSRLEATAASSVKTRMQKLAEQRRRWDNDDMTDDIPESSLFSPMPSEEKAASPPRPLLSNASATPVGRRGRLANLAATICSWEDDVNHSFAKQNSVQEQPGTACLSKFSSASGASARINSSSVKQEATFCSQRDGDASLNKALSSSADDASLVNASISSSVKATSPVKSTTSITDAKSCEGQNPELLPKTPISPLKTGVSKPIVKSTLSQTVPSKGELSREICLQSQSKDKSTTPGGTGIKPFLERFGERCQEHSKESPARSTPHRTPIITPNTKAIQERLFKQDTSSSTTHLAQQLKQERQKELACLRGRFDKGNIWSAEKGG |
